Experiment [1] has as its target Macrophage colony-stimulating factor 1 receptor (Homo sapiens) (UniProt P07333). The experiment can be described thus: Inhibition of CSF1R (unknown origin) assessed as remaining activity at 1 uM by Kinome scan method relative to control.
Experiment [2] deals with Epidermal growth factor receptor (Homo sapiens), P00533 [UNDEFINED MUTATION]. The experiment can be described thus: Inhibition of EGFR S752-I759del mutant (unknown origin) assessed as remaining activity at 1 uM by Kinome scan method relative to control.
The test system of experiment [3] is Leucine-rich repeat serine/threonine-protein kinase 2 (Homo sapiens), Q5S007 [G2019S]. The experiment can be described thus: Inhibition of human LRRK2 G2019S mutant assessed as residual activity at 1 uM using RBER-GSK3(14-27) as substrate in presence of 33P-ATP by ProQinase assay relative to control.
In experiment [4] the target is Tyrosine-protein kinase JAK1 (Homo sapiens) (UniProt P23458). The experiment is described as follows: Inhibition of JAK1 JH2 domain (unknown origin) assessed as remaining activity at 1 uM by Kinome scan method relative to control.
Experiment [5] addresses Interferon-induced, double-stranded RNA-activated protein kinase (Homo sapiens) (UniProt P19525). The experiment can be described thus: Inhibition of human EIF2AK2 assessed as residual activity at 1 uM using RB-CTF as substrate in presence of 33P-ATP by ProQinase assay relative to control.
Experiment [6] deals with Serine/threonine-protein kinase pim-1 (Homo sapiens) (UniProt P11309). The experiment is described as follows: Inhibition of PIM1 (unknown origin) assessed as remaining activity at 1 uM by Kinome scan method relative to control.
The target of experiment [7] is CDK7/Cyclin H/MNAT1 (Homo sapiens) (UniProt P51946+P50613+P51948). The experiment is described as follows: Inhibition of human CDK7/CyclinH/MAT1 assessed as residual activity at 1 uM using RBER-CHKtide as substrate in presence of 33P-ATP by ProQinase assay relative to control. It is filed as protein-complex assay.
Experiment [8] concerns the target Mitogen-activated protein kinase kinase kinase 5 (Homo sapiens) (UniProt Q99683). The experiment can be described thus: Inhibition of human ASK1 assessed as residual activity at 1 uM using RBER-GSK3(14-27) as substrate in presence of 33P-ATP by ProQinase assay relative to control.
The target of experiment [9] is Calcium/calmodulin-dependent protein kinase type II subunit alpha (Homo sapiens) (UniProt Q9UQM7). The experiment can be described thus: Inhibition of human CAMK2A assessed as residual activity at 1 uM using RBER-CHKtide as substrate in presence of 33P-ATP by ProQinase assay relative to control.
Experiment [10] addresses Serine/threonine-protein kinase PLK3 (Homo sapiens) (UniProt Q9H4B4). The experiment can be described thus: Inhibition of human PLK3 assessed as residual activity at 1 uM using casein as substrate in presence of 33P-ATP by ProQinase assay relative to control.
Experiment [11] addresses Vascular endothelial growth factor receptor 1 (Homo sapiens) (UniProt P17948). The experiment can be described thus: Inhibition of human VEGFR1 assessed as residual activity at 1 uM using polyEY as substrate in presence of 33P-ATP by ProQinase assay relative to control.
In experiment [12] the target is Cyclin-dependent kinase 4/cyclin D1 (Homo sapiens) (UniProt P11802+P24385). The experiment is described as follows: Inhibition of human CDK4/CyclinD1 assessed as residual activity at 1 uM using RBER-CHKtide as substrate in presence of 33P-ATP by ProQinase assay relative to control. It is filed as protein-complex assay.
The target in experiment [13] is Casein kinase I isoform delta (Homo sapiens) (UniProt P48730). The experiment can be described thus: Inhibition of human CK1delta assessed as residual activity at 1 uM using casein as substrate in presence of 33P-ATP by ProQinase assay relative to control.
Experiment [14] has as its target Tyrosine-protein kinase SYK (Homo sapiens) (UniProt P43405). The experiment can be described thus: Inhibition of human SYK (1 to 635 residues) assessed as residual activity at 1 uM using polyEY as substrate in presence of 33P-ATP by ProQinase assay relative to control.
The target in experiment [15] is Casein kinase I isoform epsilon (Homo sapiens) (UniProt P49674). The experiment can be described thus: Inhibition of human CK1epsilon assessed as residual activity at 1 uM using casein as substrate in presence of 33P-ATP by ProQinase assay relative to control.
The target of experiment [16] is T1, Serine/threonine-protein kinase PLK4 (Homo sapiens) (UniProt O00444).
T1 sequence (whole entry): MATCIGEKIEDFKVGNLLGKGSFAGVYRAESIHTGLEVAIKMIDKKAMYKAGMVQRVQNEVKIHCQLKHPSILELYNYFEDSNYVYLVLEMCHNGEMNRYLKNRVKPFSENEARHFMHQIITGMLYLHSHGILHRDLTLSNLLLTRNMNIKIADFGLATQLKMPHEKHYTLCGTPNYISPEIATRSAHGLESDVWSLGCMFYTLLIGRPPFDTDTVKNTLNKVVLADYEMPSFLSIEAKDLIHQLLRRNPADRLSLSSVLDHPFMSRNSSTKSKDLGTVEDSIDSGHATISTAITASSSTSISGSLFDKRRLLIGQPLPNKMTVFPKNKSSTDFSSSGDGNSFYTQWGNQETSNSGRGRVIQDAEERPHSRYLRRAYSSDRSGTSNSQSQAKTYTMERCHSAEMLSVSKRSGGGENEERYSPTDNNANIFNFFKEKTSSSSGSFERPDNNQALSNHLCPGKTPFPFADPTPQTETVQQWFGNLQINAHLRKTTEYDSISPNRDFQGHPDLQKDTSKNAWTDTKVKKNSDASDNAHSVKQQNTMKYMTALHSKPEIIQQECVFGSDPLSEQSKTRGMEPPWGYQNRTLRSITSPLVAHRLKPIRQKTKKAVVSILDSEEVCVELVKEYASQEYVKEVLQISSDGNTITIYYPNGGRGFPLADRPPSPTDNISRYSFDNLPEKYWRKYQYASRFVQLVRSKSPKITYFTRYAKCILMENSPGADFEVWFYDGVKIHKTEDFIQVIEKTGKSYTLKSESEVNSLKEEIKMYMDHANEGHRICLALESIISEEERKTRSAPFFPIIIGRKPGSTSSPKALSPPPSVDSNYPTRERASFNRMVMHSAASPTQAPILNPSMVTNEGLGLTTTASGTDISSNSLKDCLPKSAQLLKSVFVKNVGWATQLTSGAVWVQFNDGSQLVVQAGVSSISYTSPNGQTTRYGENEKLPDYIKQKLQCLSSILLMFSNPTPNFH
The experiment is described as follows: Inhibition of human SAK assessed as residual activity at 1 uM using p38-alpha KA as substrate in presence of 33P-ATP by ProQinase assay relative to control.

In experiment [17] the target is Serine/threonine-protein kinase PLK2 (Homo sapiens) (UniProt Q9NYY3). The experiment is described as follows: Inhibition of PLK2 (unknown origin) assessed as remaining activity at 1 uM by Kinome scan method relative to control.
Chain of Serine/threonine-protein kinase PLK2 (Homo sapiens) (Q9NYY3 whole entry, looked up): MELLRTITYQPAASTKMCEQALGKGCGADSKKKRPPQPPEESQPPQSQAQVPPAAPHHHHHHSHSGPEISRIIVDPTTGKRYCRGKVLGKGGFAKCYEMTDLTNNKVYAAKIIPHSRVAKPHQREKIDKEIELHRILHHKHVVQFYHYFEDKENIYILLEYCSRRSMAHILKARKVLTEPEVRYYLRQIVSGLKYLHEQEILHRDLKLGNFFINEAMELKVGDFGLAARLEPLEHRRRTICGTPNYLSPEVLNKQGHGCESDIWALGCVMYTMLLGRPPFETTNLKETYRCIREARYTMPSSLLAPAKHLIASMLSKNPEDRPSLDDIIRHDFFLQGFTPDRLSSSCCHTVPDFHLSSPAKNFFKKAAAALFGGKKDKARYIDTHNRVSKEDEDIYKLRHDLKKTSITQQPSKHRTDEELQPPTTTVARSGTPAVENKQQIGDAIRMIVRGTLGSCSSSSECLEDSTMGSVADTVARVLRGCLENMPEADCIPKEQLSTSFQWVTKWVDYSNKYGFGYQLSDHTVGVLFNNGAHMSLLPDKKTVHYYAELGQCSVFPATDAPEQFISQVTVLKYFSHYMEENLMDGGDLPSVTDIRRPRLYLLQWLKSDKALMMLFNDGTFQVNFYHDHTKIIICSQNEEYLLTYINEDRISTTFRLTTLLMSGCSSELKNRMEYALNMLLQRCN

Chain of Serine/threonine-protein kinase PLK3 (Homo sapiens) (Q9H4B4 whole entry, looked up): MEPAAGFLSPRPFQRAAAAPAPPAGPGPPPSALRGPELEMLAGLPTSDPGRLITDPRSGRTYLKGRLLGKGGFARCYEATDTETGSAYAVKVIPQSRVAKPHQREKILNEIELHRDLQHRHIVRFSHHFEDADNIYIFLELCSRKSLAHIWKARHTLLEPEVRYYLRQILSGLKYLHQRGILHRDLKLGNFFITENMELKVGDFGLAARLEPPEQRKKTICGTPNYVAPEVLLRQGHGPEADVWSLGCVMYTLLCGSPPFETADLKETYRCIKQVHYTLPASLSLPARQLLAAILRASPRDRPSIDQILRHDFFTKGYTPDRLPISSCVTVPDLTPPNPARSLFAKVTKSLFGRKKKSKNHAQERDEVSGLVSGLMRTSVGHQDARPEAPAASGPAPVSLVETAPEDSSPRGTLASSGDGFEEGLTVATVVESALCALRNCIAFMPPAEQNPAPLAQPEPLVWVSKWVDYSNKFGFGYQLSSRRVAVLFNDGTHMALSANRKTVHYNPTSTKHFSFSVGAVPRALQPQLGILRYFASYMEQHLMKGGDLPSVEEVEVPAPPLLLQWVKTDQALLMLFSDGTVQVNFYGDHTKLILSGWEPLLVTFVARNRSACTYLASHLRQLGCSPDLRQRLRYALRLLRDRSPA
Chain of Epidermal growth factor receptor (Homo sapiens), P00533 [UNDEFINED MUTATION] (P00533 whole entry, looked up, stated change not applied): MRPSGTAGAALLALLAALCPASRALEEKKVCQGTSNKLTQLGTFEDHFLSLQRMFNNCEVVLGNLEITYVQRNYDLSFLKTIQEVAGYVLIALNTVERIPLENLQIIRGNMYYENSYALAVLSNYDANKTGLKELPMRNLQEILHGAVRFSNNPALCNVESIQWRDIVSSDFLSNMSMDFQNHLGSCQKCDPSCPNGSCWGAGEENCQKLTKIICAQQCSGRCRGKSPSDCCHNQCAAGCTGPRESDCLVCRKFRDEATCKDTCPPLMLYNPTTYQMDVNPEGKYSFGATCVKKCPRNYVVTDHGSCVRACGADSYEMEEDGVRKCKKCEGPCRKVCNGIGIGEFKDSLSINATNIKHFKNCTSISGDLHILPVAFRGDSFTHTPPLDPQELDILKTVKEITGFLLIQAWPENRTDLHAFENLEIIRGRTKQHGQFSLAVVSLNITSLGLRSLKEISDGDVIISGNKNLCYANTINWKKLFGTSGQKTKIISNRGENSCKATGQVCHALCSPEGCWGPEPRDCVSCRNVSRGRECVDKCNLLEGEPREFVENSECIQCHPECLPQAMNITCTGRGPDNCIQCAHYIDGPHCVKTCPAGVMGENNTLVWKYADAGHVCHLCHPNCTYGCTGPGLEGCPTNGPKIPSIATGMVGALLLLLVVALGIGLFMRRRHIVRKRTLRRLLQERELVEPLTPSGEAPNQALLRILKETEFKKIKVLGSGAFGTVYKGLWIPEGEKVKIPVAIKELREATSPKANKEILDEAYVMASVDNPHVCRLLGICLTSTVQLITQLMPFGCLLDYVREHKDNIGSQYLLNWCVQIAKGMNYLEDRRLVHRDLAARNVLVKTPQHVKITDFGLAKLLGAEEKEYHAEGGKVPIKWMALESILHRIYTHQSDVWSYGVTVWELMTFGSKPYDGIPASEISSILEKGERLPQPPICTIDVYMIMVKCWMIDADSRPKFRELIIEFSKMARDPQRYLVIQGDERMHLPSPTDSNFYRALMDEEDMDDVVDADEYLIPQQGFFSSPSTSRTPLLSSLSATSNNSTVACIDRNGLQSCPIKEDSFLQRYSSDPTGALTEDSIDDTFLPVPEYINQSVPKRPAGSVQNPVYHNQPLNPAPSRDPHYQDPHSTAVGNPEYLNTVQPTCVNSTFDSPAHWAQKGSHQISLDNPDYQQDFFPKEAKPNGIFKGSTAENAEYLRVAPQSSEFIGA
Chain of Casein kinase I isoform epsilon (Homo sapiens) (P49674 whole entry, looked up, canonical isoform): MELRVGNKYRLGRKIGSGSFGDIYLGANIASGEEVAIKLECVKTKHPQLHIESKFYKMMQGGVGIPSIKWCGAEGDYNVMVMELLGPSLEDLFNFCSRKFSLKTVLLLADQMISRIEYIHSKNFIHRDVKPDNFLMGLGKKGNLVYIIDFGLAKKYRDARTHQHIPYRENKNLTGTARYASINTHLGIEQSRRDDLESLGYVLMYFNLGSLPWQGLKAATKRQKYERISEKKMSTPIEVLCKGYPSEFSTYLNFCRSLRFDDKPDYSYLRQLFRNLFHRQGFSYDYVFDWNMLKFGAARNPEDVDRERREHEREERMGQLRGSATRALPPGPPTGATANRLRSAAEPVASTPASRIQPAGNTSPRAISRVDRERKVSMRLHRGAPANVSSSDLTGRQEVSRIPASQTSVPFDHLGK
Chain of Mitogen-activated protein kinase kinase kinase 5 (Homo sapiens) (Q99683 whole entry): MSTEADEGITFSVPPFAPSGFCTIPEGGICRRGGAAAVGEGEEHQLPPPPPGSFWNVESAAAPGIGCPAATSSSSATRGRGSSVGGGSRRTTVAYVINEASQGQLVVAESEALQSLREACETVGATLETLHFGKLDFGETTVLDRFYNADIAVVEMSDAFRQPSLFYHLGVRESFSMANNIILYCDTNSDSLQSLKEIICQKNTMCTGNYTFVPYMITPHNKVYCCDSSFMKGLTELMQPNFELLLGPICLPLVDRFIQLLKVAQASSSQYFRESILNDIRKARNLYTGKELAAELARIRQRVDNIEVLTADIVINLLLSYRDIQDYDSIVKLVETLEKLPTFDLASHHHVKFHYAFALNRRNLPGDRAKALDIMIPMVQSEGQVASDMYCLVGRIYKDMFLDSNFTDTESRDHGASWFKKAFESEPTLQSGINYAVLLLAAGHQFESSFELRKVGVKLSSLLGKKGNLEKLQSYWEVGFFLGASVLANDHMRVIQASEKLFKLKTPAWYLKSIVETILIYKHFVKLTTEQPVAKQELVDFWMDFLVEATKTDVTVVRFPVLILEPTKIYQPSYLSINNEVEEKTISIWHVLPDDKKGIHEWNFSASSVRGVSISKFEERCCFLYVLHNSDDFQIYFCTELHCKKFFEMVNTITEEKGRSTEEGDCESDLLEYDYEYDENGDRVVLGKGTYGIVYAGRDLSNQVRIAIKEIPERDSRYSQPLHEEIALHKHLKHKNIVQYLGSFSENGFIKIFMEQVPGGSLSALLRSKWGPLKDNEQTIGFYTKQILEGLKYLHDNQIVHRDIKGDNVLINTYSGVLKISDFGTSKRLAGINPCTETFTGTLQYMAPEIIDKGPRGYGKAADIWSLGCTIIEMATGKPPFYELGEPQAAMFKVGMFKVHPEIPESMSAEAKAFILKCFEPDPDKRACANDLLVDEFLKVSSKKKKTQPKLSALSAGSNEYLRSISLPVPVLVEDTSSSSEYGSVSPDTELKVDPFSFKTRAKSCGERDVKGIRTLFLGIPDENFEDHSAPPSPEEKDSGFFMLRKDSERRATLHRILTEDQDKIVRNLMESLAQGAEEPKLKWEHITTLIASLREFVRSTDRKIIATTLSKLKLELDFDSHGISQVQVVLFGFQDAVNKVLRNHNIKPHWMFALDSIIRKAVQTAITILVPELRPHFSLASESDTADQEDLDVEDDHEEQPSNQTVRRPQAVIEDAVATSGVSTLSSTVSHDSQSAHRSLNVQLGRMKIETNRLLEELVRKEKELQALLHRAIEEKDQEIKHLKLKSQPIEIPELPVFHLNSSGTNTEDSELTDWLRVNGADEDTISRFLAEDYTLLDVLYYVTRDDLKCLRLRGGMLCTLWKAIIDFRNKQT
Chain of Serine/threonine-protein kinase pim-1 (Homo sapiens) (P11309 whole entry, looked up): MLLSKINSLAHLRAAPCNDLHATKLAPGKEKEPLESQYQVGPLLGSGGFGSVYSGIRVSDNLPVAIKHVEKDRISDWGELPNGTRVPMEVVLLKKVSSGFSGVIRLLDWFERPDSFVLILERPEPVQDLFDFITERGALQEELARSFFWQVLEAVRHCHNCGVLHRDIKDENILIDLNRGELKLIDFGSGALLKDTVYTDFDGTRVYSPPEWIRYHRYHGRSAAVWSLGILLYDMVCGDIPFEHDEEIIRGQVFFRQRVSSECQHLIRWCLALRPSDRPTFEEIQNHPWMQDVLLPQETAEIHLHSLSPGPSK
Chain of Casein kinase I isoform delta (Homo sapiens) (P48730 whole entry, looked up, the tested form may be a part, canonical isoform): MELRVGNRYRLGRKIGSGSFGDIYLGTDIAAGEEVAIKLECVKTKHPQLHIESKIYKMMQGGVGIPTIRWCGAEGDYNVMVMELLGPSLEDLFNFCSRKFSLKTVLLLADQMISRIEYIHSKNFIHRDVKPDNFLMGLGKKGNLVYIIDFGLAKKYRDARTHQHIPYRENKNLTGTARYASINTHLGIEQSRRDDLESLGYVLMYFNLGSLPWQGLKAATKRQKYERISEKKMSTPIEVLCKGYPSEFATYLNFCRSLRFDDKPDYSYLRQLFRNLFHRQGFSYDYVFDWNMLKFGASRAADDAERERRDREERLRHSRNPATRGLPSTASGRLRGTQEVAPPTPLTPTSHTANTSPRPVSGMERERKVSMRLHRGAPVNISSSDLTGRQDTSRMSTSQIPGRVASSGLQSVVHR

Take `O=C1c2ccc(Nc3ccc(F)cc3F)cc2CCc2ccc(OC[C@H](O)CO)cc21` [Skepinone-L]: the Activity amounted to 92% in experiment [1]; 100% in experiment [2]; 77% in [3]; 86% in [4]; 86% in experiment [5]; 100% in experiment [6]. Moreover, the Activity in experiment [7] came out at 107%; in [8] it was 103%; in [9] it was 83%; in experiment [10] it was 99%; in [11], 113%; in experiment [12], 92%. In addition, the Activity was determined as 98% in experiment [13]; 98% in experiment [14]; 86% in experiment [15]; 62% in experiment [16]; 100% in experiment [17].

These data come from ChEMBL document CHEMBL5696441 (Nat Chem Biol, 2011).
